Entries after “also recorded” stand apart in the source; their conditions may differ.
Columns and labels:
[1] = system: human naïve NKTs (CD161^+CD3^+); assay: Cytokine/chemokine secretion by human naïve CD161+CD3+ NKTs co-cultured with autologous immature CD14+ DCs; type: cell-based; settings: normalized to DMSO control
[2] = system: naïve CD161^+/CD3^+ NKTs; assay: Human NKT TCR activation (phosphoproteins), glycolipid presented by HeLa, HeLa-CD1d or iDCs, 10 μg/ml; type: cell-based; settings: 10 μg/ml
[3] = system: BALB/c mice; assay: Mouse serum cytokines/chemokines after IV, SubQ or IM injection; type: in vivo; settings: IV route
[4] = system: BALB/c mice; assay: Expansion/activation of mouse splenocyte subpopulations 72 h after injection; type: in vivo
[5] = system: C57BL/6 mice; assay: Expansion of NKT subsets in spleens of C57BL/6 mice; type: in vivo; settings: C57BL/6 Wt, 72 h post IV injection, 0.1 μg per mouse
[6] = system: syngeneic lung cancer (TC1) cells; assay: Lung cancer model in mice (TC1, IV inoculation); type: in vivo, mouse; settings: IV administration
[7] = system: syngeneic breast cancer (4T1); assay: Breast cancer model in mice (4T1, SubQ inoculation); type: in vivo, mouse; settings: mice bearing breast cancer
[8] = system: tetanus toxoid (TT); settings: mouse, in vivo
[9] = system: H5 of avian influenza viruses (pHA); type: in vivo, mouse
[10] = type: in vivo, mouse; settings: two weeks after the third vaccination
Experimental: BALB/c mice were injected IM with globo H-DT/α-GalCer or globo H-DT/α-GalCer analogs three times at two weeks interval. Sera was collected two weeks after the third vaccination and tested for IgG and IgM anti-globo H-specific antibody at 1:480 and 1:240 dilution, respectively, using a glycan microarray.

[11] = system: FLU-A virus serotype H1N1 (WSN); assay: Cytopathetic effect / virus titer in MDCK cells infected with H1N1 (WSN); type: cell-based; settings: pretreated at 10 μg/ml for four hours; 10TCID50; 48 hours post-infection
Experimental: FIG. 60(A-B) show the cytopathetic effect (CPE) of Madin-Darby canine kidney (MDCK) cells in vitro. MDCK cells were pretreated with vehicle, α-GalCer or one of the α-GalCer analogs C13, C14 or C16 at 10 μg/ml for four hours, followed by infection with FLU-A virus serotype H1N1 (WSN) at 10TCID50.
BALB/c mice were treated via intranasal route with control, α-GalCer (C1) or the α-GalCer analogs C13, C14 or C16 at one hour prior to virus challenge with H1N1 (WSN). […] In general, certain α-GalCer analogs may exert direct anti-viral effects, or act indirectly via immune stimulation. […] MDCK cells were pretreated with vehicle, α-GalCer or one of the α-GalCer analogs C13, C14 or C16 at 10 μg/ml for four hours, followed by infection with FLU-A virus serotype H1N1 (WSN) at 10TCID50.

[12] = system: Sphingomonas capsulata; assay: Antibacterial efficacy in Sphingomonas capsulata infected mice; type: in vivo, mouse
From the text: Sphingomonas capsulata is a common environmental bacterial strain that is found in many places such as the air and water. It can be easily identified on nutrient agar plates because of its yellow colony color. […] Since the antibacterial activities of glycolipid antigens are mediated through the activation of NKT cells by glycolipid bound-CD1-d molecules, evaluation of the antibacterial efficacies using the disease model of Sphingomonas capsulata infection will focus on the impact of the NKT mediated pathway that is activated by glycolipid bindings. Six to eight week old female C57BL/6 mice were injected IP with Sphingomonas capsulate cells. […] Twenty-four hours after bacterial infection, livers were removed from mice and homogenized. Colony formation units (CFU) of Sphingomonas capsulate in liver homogenates were determined by plating diluted samples on nutrient plates. Colonies were counted after incubation for 48 hours at 37° C. […] To confirm the antibacterial efficacies of these α-GalCer analogs, another study was conducted to repeat the study by treating infected mice with 50 μg/kg in the same disease model. […] Six to eight week old female C57BL/6 mice were injected IP with 5×10^8 Sphingomonas capsulate cells. Mice were grouped into treatment and control groups with 4-6 mice per group. Four hours after the infection, mice in the treatment group were injected IP with testing α-GalCer analogs at 50 or 100 μg/kg, and the control group mice were injected with same volumes of PBS. Twenty-four hours after bacterial infection, mice from all groups were sacrificed. Livers were removed from mice and homogenized in 0.9% NaCl, 0.02% Tween 80 using tissue homogenizers. Colony formation units (CFU) of Sphingomonas capsulate in liver homogenates were determined by plating diluted samples on nutrient plates. Colonies were counted after incubation for 48 hours at 37° C.

[13] = system: Klebsiella pneumoniae; assay: Antibacterial efficacy in K. pneumoniae infected mice; type: in vivo, mouse; settings: 100 μg/kg twice at 4-hour and 8-hour after infection
Experimental: K. pneumoniae is a Gram negative bacterium that causes liver abscess and is becoming a serious disease in Taiwan among diabetic patients. […] BALB/cByl female mice were administered a single dose of live K. pneumoniae by oral gavage. […] Twenty four hours after infection, both the liver and lungs were collected from each mouse, and homogenized. Bacterial counts were determined similarly as described above. BALB/c-Byl female mice (ten mice per group) were administered a single dose (10^6 CFU) of live-K. pneumoniae by oral gavage. Mice in the treatment groups were injected with testing α-GalCer analogs at 100 μg/kg twice at 4-hour and 8-hour after bacterial infection. Mice in the control group were injected with PBS at 4- and 8-hour. Twenty four hours after infection, all mice were sacrificed. Both livers and lungs were collected from each mouse, and homogenized. Bacterial counts were determined similarly as described above.

[14] = system: tumor metastasis; settings: mice; cited from earlier work
[15] = system: mouse spleen cells; settings: in vitro stimulation; cited from earlier work
[16] = system: mycobacterium tuberculosis, Pseudomonas aeruginosa; settings: in vivo; cited from earlier work
[17] = system: advanced cancers; settings: cited from earlier work

CCCCCCCCCCCCCCCCCCCCCCCCCC(=O)N[C@@H](CO[C@H]1O[C@H](CO)[C@H](O)[C@H](O)[C@H]1O)[C@H](O)[C@H](O)CCCCCCCCCCCCCC [C1, α-Galactosyl ceramide, reference compound]
IFN/IL-4 ratio (TH1/TH2 bias) [1]: more TH2-biased
intracellular phospho-CD3ε ([2]; presented by DCs): 10.8 folds
intracellular phospho-CD3ε ([2]; presented by HeLa-CD1d cells): 7.3 folds of control
phospho-ERK1/2 ([2]; with DCs): 30 folds
phospho-ERK1/2 ([2]; with HeLa-CD1d cells): 6.6 folds increase
IFN-γ/IL-4 ratio (TH1/TH2 bias) ([3]; 2 hours, compared with C1): less TH2 responses than C1
serum level of IFN-γ ([3]; over 72 hours): highest level of IFN-γ when given IV
B cell expansion ([4]; FIGS. 26E, 28E and 30E): more active than C1
CD8^+ T cell expansion/activation ([4]; FIGS. 26F, 28F and 30F): more active than C1
B cell expansion/activation ([4]; SubQ route): significant activities
CD4^+ T cells ([4]; SubQ route): most effective; also recorded: more active over control
total number of NKTs and its two subtypes NKT1 and NKT2 [5]: increase of total number of NKTs
anti-cancer efficacy compared with C1 [6]: significantly greater anti-cancer efficacy than C1
effect of route of administration (SubQ vs IV) on anti-tumor efficacy [7]: more effective than IV delivery in prolonging the survival of mice bearing breast cancer; also recorded: statistically better efficacy with SubQ delivery over IV route
antibody production compared with Alum [8]: significantly greater antibody production than Alum
antibody response relative to conventional vaccine [8]: ~2 fold
level of antibody after delayed boost compared with TT+Alum [8]: twice as high as those given TT+Alum
adjuvant activities in enhancing the anti-HAc antibody titer ([9]; 0.2 μg pHAc): better adjuvant activities than the others in enhancing the antibody titer
anti-H5 responses ([9]; 5-45 μg H5 DNA vaccine, three weeks after first immunization): enhanced by α-GalCer at 5-30 μg H5 DNA, but reached a plateau at 45 μg
adjuvant effect on anti-H5 titers ([9]; H5 DNA dose 0.2-5 μg, two weeks after second immunization): evident for all low dosages tested
anti-HA-specific IgG antibody ([9]; three weeks after one dose immunization): enhanced
anti-globo H IgM antibody ([10]; 1:240 dilution): not in C1 treated group
anti-globo H IgG antibody ([10]; 1:480 dilution): elicited significant IgG antibody production
entry/replication of H1N1 virus (virus titer) [11]: slight inhibition of the entry/replication of H1N1 virus in vitro
difference in the values of the CFU per gram liver among efficacious groups ([12]; 50 μg/kg): not statistically significant
CFU numbers in liver ([12]; 100 μg/kg IP, 24 hour after bacterial infection): significantly lower than the control group
bacterial loads in mouse lung and liver [13]: significantly reduce the bacterial loads in mouse lung and liver
tumor metastasis [14]: suppress tumor metastasis to liver, lung and lymph nodes
NKT proliferation and cytokine production [15]: proliferation of NKTs and production of both IFN-[…] and IL-4
antibacterial activities [16]: amelioration of mycobacterium tuberculosis infections, clearance of lung infection by Pseudomonas aeruginosa
toxicity ([17]; human, in vivo): without any toxicity
clinical anti-tumor outcome ([17]; α-GalCer or α-GalCer-loaded iDCs, phase I): no durable tumor regression, stable disease was noted in several patients

From patent US20080260774A1, “Alpha-galactosyl ceramide analogs and their use as immunotherapies” (priority 2007, published 2008)
